Laboratory results published in a compilation of properties of binary mixtures (doi:10.1016/j.molliq.2021.117187).

Assay: xn = mol fraction of the nth substance listed
Settings: 100 kPa

CCCC[n+]1ccn(C)c1.F[B-](F)(F)F + CCOC(C)=O
speed of sound [m/s]
Settings | x1 = 0.1012 | x1 = 0.1992 | x1 = 0.312 | x1 = 0.3985 | x1 = 0.5056 | x1 = 0.5996 | x1 = 0.7054 | x1 = 0.7963 | x1 = 0.9185
298.15 K | 1186 | 1228.1 | – | 1307 | 1351.4 | – | 1437.5 | – | –
303.15 K | 1164.6 | 1207.8 | – | – | 1334.1 | – | 1422.3 | – | 1509.6
308.15 K | – | – | 1232 | 1270.6 | 1317.1 | 1360.3 | 1407.5 | – | 1496.9
313.15 K | – | 1167.6 | – | 1252.4 | – | – | 1392.6 | 1438.8 | 1484.1
318.15 K | – | 1147.5 | 1193.9 | 1234.4 | 1283.1 | 1328.3 | 1377.8 | 1425.1 | –
323.15 K | 1080.1 | 1127.5 | 1175 | 1216.4 | – | 1312.6 | 1363.2 | 1411.6 | 1459.1
